{"source": "patent US20060135415A1", "about": "“Immunomodulation and effect on cell processes relating to serotonin family receptors and the blood-brain barrier” (priority 2002, published 2006)", "key": {"human 5HT2C-INI receptor": {"molecular_target": "T1, human 5HT2C-INI receptor (Homo sapiens, UniProt P28335)", "T1 sequence (P28335 33-458)": "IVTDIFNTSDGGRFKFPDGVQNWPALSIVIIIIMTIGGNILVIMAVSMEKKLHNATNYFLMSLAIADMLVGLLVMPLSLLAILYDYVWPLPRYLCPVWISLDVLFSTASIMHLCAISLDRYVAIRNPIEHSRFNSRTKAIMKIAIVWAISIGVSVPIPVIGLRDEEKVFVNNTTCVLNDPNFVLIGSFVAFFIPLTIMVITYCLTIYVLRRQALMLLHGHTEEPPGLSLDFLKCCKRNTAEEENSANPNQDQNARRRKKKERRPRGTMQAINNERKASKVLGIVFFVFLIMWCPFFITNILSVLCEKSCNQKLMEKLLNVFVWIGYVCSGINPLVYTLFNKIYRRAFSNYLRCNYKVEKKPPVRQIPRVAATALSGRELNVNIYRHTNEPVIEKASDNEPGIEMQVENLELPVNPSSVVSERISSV", "settings": "HEK-293 cells, data from Rauser et al. 2001 (FIG. 38); cited from earlier work"}, "RPMI 8226 cells [1]": {"test_system": "RPMI 8226 cells", "test": "DNA fragmentation (internucleosomal laddering)", "assay_type": "cell-based, human", "settings": "RPMI 8226 cells (FIGS. 26, 35)", "description": "Cells (8×10^5) were washed with ice-cold PBS following experimental treatments and pelleted by centrifugation (500×g, 5 min). Cell pellets were incubated for 5 minutes on ice in lysis buffer (1% IGEPAL-CA630, 20 mM EDTA, 50 mM Tris-HCL, pH 7.5). Lysates were centrifuged at about 1,600×g for 5 minutes. 501 μL of lysis buffer was added to the supernatant. The extract was brought to 1% SDS and treated for 2 hours with 5 μg/μL Rnase A (57° C.) followed by treatment with 2.5 μg/μL proteinase K for 2 hours (37° C.). After digestion of RNA and protein, half volume of 10 M ammonium acetate was added and the DNA was precipitated using 2.5 volumes of ethanol, washed in 70% ethanol, air-dried, and dissolved in TE buffer. DNA fragments were separated by electrophoresis in 1.5% agarose gels using a protocol adapted from Siegel et al. (1998, Proc. Natl. Acad. Sci. USA 95:162-166)."}, "RPMI 8226 cells [2]": {"test_system": "RPMI 8226 cells", "test": "Annexin V / propidium iodide flow cytometry", "assay_type": "cell-based, human", "settings": "RPMI 8226 cells (FIGS. 27, 34)", "protocol": "Early apoptotic cells were detected by co-staining cells previously exposed to each experimental condition. Briefly, cells were incubated during a time course in the presence of various concentrations of each experimental or control apoptosis inducing agent as set forth elsewhere herein. After incubation, the cells were washed with ice-cold PBS, stained with Annexin V-Alexa flour 488 and Propidium Iodide (Molecular Probes, Eugene, Oreg.) and analyzed by dual-color flow cytometry. Annexin V^+ and PI^− cells were considered as early apoptotic cells. The known terminal differentiator of myeloma cells, HMBA (hexamethylene-bis-acetamide), and the topoisomerase inhibitor, camtothecin, were used as positive controls for apoptosis at 5 mM and 2 μM, respectively.\nTherefore, the degree of apoptosis in a cell population can be ascertained by assessing the presence of annexin-V positive cells and the absence of propidium iodide (PI) staining cells (necrotic cells). […] The extent of apoptosis was determined by analyzing flow cytometry data and generating FACS plots, which were then gated to include only the population of cells which were PI negative (non-necrotic). The degree of annexin-V positive cells was then measured in this PI negative cell population as a measure of apoptosis (FIG. 34)."}, "[3]": {"test": "In vivo screen for sedation / CNS effects after i.v. injection", "design": "species or system BALB/c mice", "description": "Both QSS5 and QSS6 were assayed in vivo for the immediate ‘sleep’ effect."}, "[4]": {"test_system": "ConA stimulated human lymphocytes", "test": "Human mitogenic (ConA) stimulation, 3H-thymidine incorporation", "assay_type": "cell-based"}, "[5]": {"test_system": "Chronic Lymphocytic Leukemia tumor cells", "test": "Ex planted bone marrow aspirates from a CLL patient", "assay_type": "cell-based, human"}}, "note": "“Also recorded” adds a separate entry of the source."}
{"compound": "OCCN1CCN(CCCN2c3ccccc3Sc3ccc(C(F)(F)F)cc32)CC1", "note": "[Fluphenazine]", "values": [{"measurement": "inverse agonism / inhibition of 5-HT 2C receptor", "setting": "human 5HT2C-INI receptor", "value": "potent inverse agonist; also recorded: effective inhibitor (inverse agonist)"}, {"measurement": "DNA laddering", "setting": "RPMI 8226 cells [1]", "value": "increase in DNA laddering over control cell extracts"}, {"measurement": "apoptosis, annexin-V positive / PI negative cells", "setting": "RPMI 8226 cells [2]", "value": "significantly greater degree of apoptosis than any of the control cell populations"}, {"measurement": "duration of sleep", "setting": "[3]; 15 mg/kg i.v. tail vein, BALB/c mice", "value": "approximately 10 hours"}, {"measurement": "sedation / abnormal behavior", "setting": "[3]; 15 mg/kg i.v. tail vein, BALB/c mice, observed over 72 hour period", "value": "instantly sedated"}, {"measurement": "sedative effect", "setting": "[3]; intravenous injection in an animal", "value": "strong sedative, inducing sleep in an animal before the needle is withdrawn from the vein"}, {"measurement": "activation / proliferative response", "setting": "[4]; 5 μg/ml ConA, harvest 72 hours, drug titration (FIGS. 7A, 8A, 9A, 17, 33)", "value": "dramatic and dose-dependent decrease in proliferation"}, {"measurement": "in vitro activation / proliferation of (helper) T cells", "setting": "[4]; in vitro", "value": "inhibits T cell responses"}, {"measurement": "tumor cell burden", "setting": "[5]", "value": "reduces the tumor cell burden"}]}
